Measurements published in patent US4469634A, “Allyloxy- and allylthio-2,3,4,5-tetrahydro-1H-3-benzazepines” (SmithKline Beckman Corporation, priority 1982, dated 1984).
Where a name gives a salt, the structure may show the parent alone. Read-outs that look alike come from different tables or passages of the source.

Key:
alpha2-adrenoceptor = molecular target: T1, alpha2-adrenoceptor (Cavia porcellus, UniProt Q60474); experiment: prejunctional alpha2-antagonist activity in isolated superfused guinea pig left atrium (shift of clonidine concentration-response curve); assay type: cell-based
T1 construct: The left atrium is removed, dissected free of extraneous tissue and mounted in a 2 ml superfusion chamber; from tissue; host or cells: left atrium of male guinea pig (sympathetic nerve terminals)
T1 sequence (Q60474 1-464): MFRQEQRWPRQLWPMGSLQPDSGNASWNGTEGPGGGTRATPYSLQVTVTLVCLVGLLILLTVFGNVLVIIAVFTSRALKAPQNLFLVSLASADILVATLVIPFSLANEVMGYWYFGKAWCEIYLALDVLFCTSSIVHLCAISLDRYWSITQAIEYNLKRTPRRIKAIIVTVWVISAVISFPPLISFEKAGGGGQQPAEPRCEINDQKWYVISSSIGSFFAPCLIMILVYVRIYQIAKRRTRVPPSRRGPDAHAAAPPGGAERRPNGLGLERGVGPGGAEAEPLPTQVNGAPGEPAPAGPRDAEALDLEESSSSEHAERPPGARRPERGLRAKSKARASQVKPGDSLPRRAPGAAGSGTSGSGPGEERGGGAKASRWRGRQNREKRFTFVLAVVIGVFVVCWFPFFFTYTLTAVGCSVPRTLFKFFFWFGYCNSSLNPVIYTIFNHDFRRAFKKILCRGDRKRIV
Protocol: Briefly, the heart is removed from a pentobarbital-anesthetized male guinea pig. The left atrium is removed, dissected free of extraneous tissue and mounted in a 2 ml superfusion chamber. The tissue is paced at 60 pulse/minute and the sympathetic nerves excited at 6 minute intervals by field stimulation. The response to nerve stimulation is measured as the difference in contractile force between the basal contraction and peak contraction following a nerve stimulation. A concentration-response curve for clonidine (a known alpha2 -agonist) is prepared by administering increasing concentrations of clonidine following each successive stimulation. The tissue is, then, superfused with the alpha2 -antagonist to be tested for thirty minutes and the clonidine concentration-effect curve is repeated in the presence of antagonist. The receptor dissociation constant of the antagonist (KB) is defined as the antagonist concentration required to shift the log concentration-response curve of the agonist to the right by a factor of 2.
Pharmacol. 309 217-224 (1979).

platelet = platelet test (method not described); assay type: cell-based

SMILES	Kb (alpha2-adrenoceptor) [nM]	EC50 (platelet) [nM]	Kb (alpha2-adrenoceptor; isolated superfused guinea pig left atrium, clonidine as agonist, antagonist superfused thirty minutes, read-out: KB, guinea pig atrium (receptor dissociation constant of the antagonist)) [nM]
C=CCSc1ccc2c(c1)CCNCC2 [Example 1, 7-allylthio-2,3,4,5-tetrahydro-1H-3-benzazepine hydrochloride]	380		
C=CCOc1ccc(Cl)c2c1CCN(C)CC2 [Example 2, 9-allyloxy-6-chloro-3-methyl-2,3,4,5-tetrahydro-1H-3-benzazepine hydrochloride]	320	90	
C=CCOc1cccc2c1CCN(C)CC2 [Example 5, 6-allyloxy-3-methyl-2,3,4,5-tetrahydro-1H-3-benzazepinehydrochloride]			160
